Measured values taken from patent US10357493B2, “Metalloenzyme inhibitor compounds” (Selenity Therapeutics (Bermuda), Ltd., priority 2017, dated 2019).

Columns and labels:
[1] = Mouse Pharmacokinetics, oral single dose; type: in vivo, male Swiss Albino mice; details: male, Swiss Albino, plasma, 5 mg/kg, formulation by footnote: a 20% CremEL in H20, b 1% CMC in water, c 2% DMSO, 0.2% Tween80, 97.8% of 1% CMC
Method: Example 187: Mouse Pharmacokinetics
A dose of 5 mg/kg in an appropriate formulation was administered by oral gavage to fasted male Swiss Albino mice (n=3), and the plasma was collected at 0, 0.25, 0.5, 1, 2, 4, 8, and 24 h. Plasma levels were measured by HPLC/MS/MS methods and the pharmacokinetic parameters were determined for individual animals from plasma concentration-time data using noncompartmental model 200-202 in Phoenix WinNonlin 6.3.

[2] = target: HDAC1 (Homo sapiens (Human), UniProt Q13547); assay: HDAC1 enzymatic assay; type: biochemical; details: read-out: Human HDAC1 IC50
HDAC1, sequence (Q13547 whole entry): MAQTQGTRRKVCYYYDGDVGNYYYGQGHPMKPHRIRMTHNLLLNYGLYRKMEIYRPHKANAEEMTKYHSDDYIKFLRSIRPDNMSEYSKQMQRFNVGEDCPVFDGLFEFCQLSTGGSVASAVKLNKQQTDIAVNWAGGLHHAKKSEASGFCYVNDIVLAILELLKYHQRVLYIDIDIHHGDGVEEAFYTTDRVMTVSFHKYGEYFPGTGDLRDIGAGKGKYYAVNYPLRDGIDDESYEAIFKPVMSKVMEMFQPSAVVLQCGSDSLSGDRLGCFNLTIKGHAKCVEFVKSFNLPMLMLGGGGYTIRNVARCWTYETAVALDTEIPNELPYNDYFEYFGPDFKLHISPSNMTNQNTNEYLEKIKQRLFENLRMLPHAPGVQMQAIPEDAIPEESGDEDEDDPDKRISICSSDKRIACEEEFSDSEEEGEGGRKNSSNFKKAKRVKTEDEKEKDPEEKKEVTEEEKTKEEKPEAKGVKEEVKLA
Method in brief: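 Compound inhibition of human HDAC1 (0.5 ng enzyme, 10 uM substrate) was assessed by fluorescence after developer treatment, excitation 360 nm and emission 460 nm. Percent activity was normalized to no-compound (100%) and no-enzyme (0%) controls, plotted against concentration, and fitted to a sigmoidal dose-response curve in Graphpad Prism to obtain IC50 at half-maximal activity.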

[3] = target: HDAC6 (Homo sapiens (Human), UniProt Q9UBN7); assay: HDAC6 enzymatic assay; type: biochemical; details: read-out: Human HDAC6 IC50
HDAC6, sequence (Q9UBN7 whole entry): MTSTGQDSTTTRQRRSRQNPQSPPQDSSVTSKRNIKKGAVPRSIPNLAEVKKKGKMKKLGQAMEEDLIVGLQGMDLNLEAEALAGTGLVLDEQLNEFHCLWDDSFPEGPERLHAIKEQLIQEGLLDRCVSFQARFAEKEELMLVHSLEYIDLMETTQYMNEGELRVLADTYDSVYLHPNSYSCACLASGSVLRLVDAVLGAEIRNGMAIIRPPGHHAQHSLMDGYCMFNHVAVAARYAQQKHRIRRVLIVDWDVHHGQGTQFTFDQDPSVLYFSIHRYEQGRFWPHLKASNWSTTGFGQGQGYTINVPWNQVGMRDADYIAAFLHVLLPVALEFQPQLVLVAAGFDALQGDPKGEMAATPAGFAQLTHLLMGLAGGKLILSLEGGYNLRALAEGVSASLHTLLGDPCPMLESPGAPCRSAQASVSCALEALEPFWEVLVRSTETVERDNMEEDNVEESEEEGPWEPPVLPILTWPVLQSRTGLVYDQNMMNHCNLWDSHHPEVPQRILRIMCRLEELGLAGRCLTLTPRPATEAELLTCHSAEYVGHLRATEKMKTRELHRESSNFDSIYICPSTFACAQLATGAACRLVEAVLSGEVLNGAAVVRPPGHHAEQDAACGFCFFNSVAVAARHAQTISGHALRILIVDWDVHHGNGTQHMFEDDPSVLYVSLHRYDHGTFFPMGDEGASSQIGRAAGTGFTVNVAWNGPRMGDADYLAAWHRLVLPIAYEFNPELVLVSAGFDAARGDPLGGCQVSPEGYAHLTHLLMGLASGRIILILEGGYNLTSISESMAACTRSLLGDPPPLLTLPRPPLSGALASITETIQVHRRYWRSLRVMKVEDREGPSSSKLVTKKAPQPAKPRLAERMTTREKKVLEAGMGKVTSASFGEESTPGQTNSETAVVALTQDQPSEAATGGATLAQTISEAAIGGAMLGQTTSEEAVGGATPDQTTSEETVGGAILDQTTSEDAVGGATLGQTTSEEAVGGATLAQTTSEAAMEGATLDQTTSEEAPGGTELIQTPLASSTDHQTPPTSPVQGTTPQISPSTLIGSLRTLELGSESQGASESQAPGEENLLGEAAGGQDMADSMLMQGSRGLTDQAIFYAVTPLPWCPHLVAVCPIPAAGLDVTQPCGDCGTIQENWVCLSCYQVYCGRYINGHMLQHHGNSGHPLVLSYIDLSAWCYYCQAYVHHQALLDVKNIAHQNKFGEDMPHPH
Method in brief: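 Following a 17 hour room-temperature incubation of 2 ng HDAC6 with 10 uM substrate and compound, 50 μl developer was added for another 20 minutes, and fluorescence (excitation 360 nm, emission 460 nm) was recorded. Activity was normalized to no-compound (100%) and no-enzyme (0%) wells, and IC50 came from sigmoidal dose-response fitting in Graphpad Prism.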

Cmax [1] [µg/mL]	half-life [1] [h]	IC50 [2] [µM]	IC50 [3] [µM]	SMILES
2.12	2.3	> 30	0.027	CCS(=O)(=O)NCC(Nc1ncc(-c2nnc(C(F)F)o2)cn1)c1ccc(F)cc1 (stereo not shown) [Example 108, N-(2-((5-(5-(difluoromethyl)-1,3,4-oxadiazol-2-yl)pyrimidin-2-yl)amino)-2-(4-fluorophenyl)ethyl)ethanesulfonamide]
1.36	3.5			CN(CC(Nc1ncc(-c2nnc(C(F)F)o2)cn1)c1ccc(F)cc1)S(C)(=O)=O (single isomer, unassigned) [113(+), N-(2-((5-(5-(difluoromethyl)-1,3,4-oxadiazol-2-yl)pyrimidin-2-yl)amino)-2-(4-fluorophenyl)ethyl)-N-methylmethanesulfonamide]
2.82	5.6	> 30	0.024	CS(=O)(=O)NCC(Nc1ncc(-c2nnc(C(F)F)o2)cn1)c1ccc(Cl)cc1 (single isomer, unassigned) [173(+), N-(2-(4-chlorophenyl)-2-((5-(5-(difluoromethyl)-1,3,4-oxadiazol-2-yl)pyrimidin-2-yl)amino)ethyl)methanesulfonamide]
2.53	4.1	> 30	0.035	O=S(=O)(NCC(Nc1ncc(-c2nnc(C(F)F)o2)cn1)c1ccc(F)cc1F)C1CC1 (stereo not drawn) [142(+), N-(2-((5-(5-(difluoromethyl)-1,3,4-oxadiazol-2-yl)pyrimidin-2-yl)amino)-2-(2,4-difluorophenyl)ethyl)cyclopropanesulfonamide]
0.047	2.7			O=C(CCCCCCNC(=O)c1cnc(N(c2ccccc2)c2ccccc2)nc1)NO [Ricolinostat, ricolinostat, reference compound]
		> 30	0.072	CS(=O)(=O)N(CC(Nc1ncc(-c2nnc(C(F)F)o2)cn1)c1ccc(F)cc1)CC(F)(F)F (stereo not shown) [Example 118, N-(2-((5-(5-(difluoromethyl)-1,3,4-oxadiazol-2-yl)pyrimidin-2-yl)amino)-2-(4-fluorophenyl)ethyl)-N-(2,2,2-trifluoroethyl)methanesulfonamide]
		> 30	0.39	FC(F)c1nnc(-c2cnc(NC3(c4cccnc4)CC3)nc2)o1 [Example 65, 5-(5-(difluoromethyl)-1,3,4-oxadiazol-2-yl)-N-(1-(pyridin-3-yl)cyclopropyl)pyrimidin-2-amine]
		> 30	0.1	CCCC(Nc1ncc(-c2nnc(C(F)F)o2)cn1)c1ccc(F)cc1 (stereo not shown) [Example 23, 5-(5-(difluoromethyl)-1,3,4-oxadiazol-2-yl)-N-(1-(4-fluorophenyl)butyl)pyrimidin-2-amine]
		> 30	1.1	CN(CC(Nc1ncc(-c2nnc(C(F)F)o2)cn1)c1ccc(F)cc1)C(=O)C1CC1 (single isomer, unassigned) [169(−), N-(2-((5-(5-(difluoromethyl)-1,3,4-oxadiazol-2-yl)pyrimidin-2-yl)amino)-2-(4-fluorophenyl)ethyl)-N-methylcyclopropanecarboxamide]
		> 30	0.42	CC(=O)NCC(Nc1ncc(-c2nnc(C(F)F)o2)cn1)c1ccc(F)cc1 (single isomer, unassigned) [78(−), N-(2-((5-(5-(difluoromethyl)-1,3,4-oxadiazol-2-yl)pyrimidin-2-yl)amino)-2-(4-fluorophenyl)ethyl)acetamide]
		> 30	0.22	Fc1ccc(C(COC2CC2)Nc2ncc(-c3nnc(C(F)F)o3)cn2)c(F)c1 (single isomer, unassigned) [Example 134A, N-(2-cyclopropoxy-1-(2,4-difluorophenyl)ethyl)-5-(5-(difluoromethyl)-1,3,4-oxadiazol-2-yl)pyrimidin-2-amine]
		> 30	0.037	O=S1(=O)CCCN1CC(Nc1ncc(-c2nnc(C(F)F)o2)cn1)c1ccc(F)cc1 (single isomer, unassigned; (+)) [120(+), (+)-2-(2-((5-(5-(difluoromethyl)-1,3,4-oxadiazol-2-yl)pyrimidin-2-yl)amino)-2-(4-fluorophenyl)ethyl)isothiazolidine 1,1-dioxide]
		> 30	0.077	Fc1cc(OCC(F)(F)F)ccc1C1(Nc2ncc(-c3nnc(C(F)F)o3)cn2)CC1 [Example 84, 5-(5-(difluoromethyl)-1,3,4-oxadiazol-2-yl)-N-(1-(2-fluoro-4-(2,2,2-trifluoroethoxy)phenyl)cyclopropyl)pyrimidin-2-amine]
		> 30	0.03	FC(F)c1nnc(-c2cnc(NC3(c4ccc(Cl)cc4)CC3)nc2)o1 [Example 50, N-(1-(4-chlorophenyl)cyclopropyl)-5-(5-(difluoromethyl)-1,3,4-oxadiazol-2-yl)pyrimidin-2-amine]
		> 100	0.006	Fc1ccccc1C1(Nc2ncc(-c3nnc(C(F)F)o3)cn2)CC1 [Example 56, 5-(5-(difluoromethyl)-1,3,4-oxadiazol-2-yl)-N-(1-(2-fluorophenyl)cyclopropyl)pyrimidin-2-amine]
		> 30	0.029	Fc1cc(OC(F)F)ccc1C1(Nc2ncc(-c3nnc(C(F)F)o3)cn2)CC1 [Example 33, N-(1-(4-(difluoromethoxy)-2-fluorophenyl)cyclopropyl)-5-(5-(difluoromethyl)-1,3,4-oxadiazol-2-yl)pyrimidin-2-amine]
		> 30	> 30	Fc1ccc(-c2ccccc2C2(Nc3ncc(-c4nnc(C(F)F)o4)cn3)CC2)cc1 [Example 14, 5-(5-(difluoromethyl)-1,3,4-oxadiazol-2-yl)-N-(1-(4′-fluoro-[1,1′-biphenyl]-2-yl)cyclopropyl)pyrimidin-2-amine]
		> 30	0.039	COc1cccc(C2(Nc3ncc(-c4nnc(C(F)F)o4)cn3)CC2)c1 [Example 43, 5-(5-(difluoromethyl)-1,3,4-oxadiazol-2-yl)-N-(1-(3-methoxyphenyl)cyclopropyl)pyrimidin-2-amine]
		> 30	0.13	Fc1ccc(C(COCC(F)(F)F)Nc2ncc(-c3nnc(C(F)F)o3)cn2)cc1 (single isomer, unassigned) [162(+), 5-(5-(difluoromethyl)-1,3,4-oxadiazol-2-yl)-N-(1-(4-fluorophenyl)-2-(2,2,2-trifluoroethoxy)ethyl)pyrimidin-2-amine]
		> 30	0.093	CC(=O)N(C)CC(Nc1ncc(-c2nnc(C(F)F)o2)cn1)c1ccc(F)cc1 (single isomer, unassigned) [166(+), N-(2-((5-(5-(difluoromethyl)-1,3,4-oxadiazol-2-yl)pyrimidin-2-yl)amino)-2-(4-fluorophenyl)ethyl)-N-methylacetamide]
		> 30	0.36	CC(=O)N(C)CC(Nc1ncc(-c2nnc(C(F)F)o2)cn1)c1ccc(F)cc1 (single isomer, unassigned) [166(−), N-(2-((5-(5-(difluoromethyl)-1,3,4-oxadiazol-2-yl)pyrimidin-2-yl)amino)-2-(4-fluorophenyl)ethyl)-N-methylacetamide]
		> 30	0.03	CC(Nc1ncc(-c2nnc(C(F)F)o2)cn1)c1c(F)cccc1F (single isomer, unassigned; (+)) [100(+), (+)-5-(5-(difluoromethyl)-1,3,4-oxadiazol-2-yl)-N-(1-(2,6-difluorophenyl)ethyl)pyrimidin-2-amine]
		> 30	0.19	CS(=O)(=O)Nc1ccccc1C(Nc1ncc(-c2nnc(C(F)F)o2)cn1)c1ccc(F)cc1 (stereo not shown) [Example 130, N-(2-(((5-(5-(difluoromethyl)-1,3,4-oxadiazol-2-yl)pyrimidin-2-yl)amino)(4-fluorophenyl)methyl)phenyl)methanesulfonamide]
		> 30	0.028	Cc1cccc(C2(Nc3ncc(-c4nnc(C(F)F)o4)cn3)CC2)c1Cl [Example 77, N-(1-(2-chloro-3-methylphenyl)cyclopropyl)-5-(5-(difluoromethyl)-1,3,4-oxadiazol-2-yl)pyrimidin-2-amine]
		> 30	0.44	CCS(=O)(=O)N(CC(Nc1ncc(-c2nnc(C(F)F)o2)cn1)c1ccc(OC(F)(F)F)cc1)CC(F)(F)F (stereo not drawn) [157(+), N-(2-((5-(5-(difluoromethyl)-1,3,4-oxadiazol-2-yl)pyrimidin-2-yl)amino)-2-(4-(trifluoromethoxy)phenyl)ethyl)-N-(2,2,2-trifluoroethyl)ethanesulfonamide]
		> 30	0.84	CS(=O)(=O)NCC(Nc1ncc(-c2nnc(C(F)F)o2)cn1)c1ccc(OC(F)(F)F)cc1 (single isomer, unassigned) [122(−), N-(2-((5-(5-(difluoromethyl)-1,3,4-oxadiazol-2-yl)pyrimidin-2-yl)amino)-2-(4-(trifluoromethoxy)phenyl)ethyl)methanesulfonamide]
